The values that follow come from BindingDB's records for doi:10.1021/jm900517t.

The structures appear in SMILES notation. Bounds are passed on as bounds.

Holding throughout (assay): HCV RNA-Dependent RNA Polymerase Assay (IC50)
Test [1] deals with Genome polyprotein (Hepatitis C virus genotype 2b (isolate HC-J8), UniProt P26661).
Test [2] concerns the target Genome polyprotein (Hepatitis C virus genotype 1b (isolate BK), UniProt P26663). The note with it: pH 7.5; 23 °C.
For test [3], the target named is T1, Genome polyprotein [2420-2989,M2842K,R2963Q] (Hepatitis C virus genotype 1b (isolate BK), UniProt P26663, M2842K/R2963Q).
T1 construct: 2420-2989
The settings on record: pH 7.5; 23 °C.

Test [4] deals with T2, Genome polyprotein [2420-2989,R2920E,R2963Q] (Hepatitis C virus genotype 1b (isolate BK), UniProt P26663, R2920E/R2963Q).
T2 construct: 2420-2989
The settings on record: pH 7.5; 23 °C.

Chain of Genome polyprotein (Hepatitis C virus genotype 2b (isolate HC-J8), UniProt P26661) (P26661 2443-3033 limits assumed): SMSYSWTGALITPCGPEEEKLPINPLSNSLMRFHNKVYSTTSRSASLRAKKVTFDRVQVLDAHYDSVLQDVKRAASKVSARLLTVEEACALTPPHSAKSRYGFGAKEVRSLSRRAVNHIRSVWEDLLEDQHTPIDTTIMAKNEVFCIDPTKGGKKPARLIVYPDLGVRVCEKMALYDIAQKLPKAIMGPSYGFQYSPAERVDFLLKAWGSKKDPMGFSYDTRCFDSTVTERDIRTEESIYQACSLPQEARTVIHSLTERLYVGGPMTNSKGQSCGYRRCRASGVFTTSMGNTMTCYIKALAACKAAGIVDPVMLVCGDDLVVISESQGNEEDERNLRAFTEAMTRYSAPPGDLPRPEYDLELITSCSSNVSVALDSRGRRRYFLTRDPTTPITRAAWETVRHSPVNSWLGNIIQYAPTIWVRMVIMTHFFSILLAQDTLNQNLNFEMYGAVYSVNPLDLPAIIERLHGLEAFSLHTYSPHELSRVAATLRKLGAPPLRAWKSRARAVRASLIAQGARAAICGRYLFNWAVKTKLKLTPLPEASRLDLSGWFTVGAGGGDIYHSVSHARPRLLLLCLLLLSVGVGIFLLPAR
Chain of Genome polyprotein (Hepatitis C virus genotype 1b (isolate BK), UniProt P26663) (P26663 2420-3010 limits assumed): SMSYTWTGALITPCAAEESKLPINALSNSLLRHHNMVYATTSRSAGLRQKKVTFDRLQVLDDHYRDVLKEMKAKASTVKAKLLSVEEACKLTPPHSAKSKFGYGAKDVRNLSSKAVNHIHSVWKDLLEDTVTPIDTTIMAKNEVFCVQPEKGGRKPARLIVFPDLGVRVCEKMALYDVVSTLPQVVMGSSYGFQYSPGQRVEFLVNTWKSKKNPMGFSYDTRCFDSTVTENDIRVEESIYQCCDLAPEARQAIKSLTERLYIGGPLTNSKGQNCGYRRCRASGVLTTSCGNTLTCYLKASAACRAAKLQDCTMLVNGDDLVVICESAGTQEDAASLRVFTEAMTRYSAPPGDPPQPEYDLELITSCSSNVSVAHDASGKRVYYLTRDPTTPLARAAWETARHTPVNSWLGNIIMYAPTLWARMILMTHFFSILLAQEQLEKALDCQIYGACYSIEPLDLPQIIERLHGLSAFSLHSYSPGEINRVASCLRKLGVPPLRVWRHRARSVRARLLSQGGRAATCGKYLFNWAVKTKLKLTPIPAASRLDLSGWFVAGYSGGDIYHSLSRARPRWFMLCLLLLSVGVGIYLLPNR
T2 sequence (P26663 2420-2997, looked up, stated change not applied): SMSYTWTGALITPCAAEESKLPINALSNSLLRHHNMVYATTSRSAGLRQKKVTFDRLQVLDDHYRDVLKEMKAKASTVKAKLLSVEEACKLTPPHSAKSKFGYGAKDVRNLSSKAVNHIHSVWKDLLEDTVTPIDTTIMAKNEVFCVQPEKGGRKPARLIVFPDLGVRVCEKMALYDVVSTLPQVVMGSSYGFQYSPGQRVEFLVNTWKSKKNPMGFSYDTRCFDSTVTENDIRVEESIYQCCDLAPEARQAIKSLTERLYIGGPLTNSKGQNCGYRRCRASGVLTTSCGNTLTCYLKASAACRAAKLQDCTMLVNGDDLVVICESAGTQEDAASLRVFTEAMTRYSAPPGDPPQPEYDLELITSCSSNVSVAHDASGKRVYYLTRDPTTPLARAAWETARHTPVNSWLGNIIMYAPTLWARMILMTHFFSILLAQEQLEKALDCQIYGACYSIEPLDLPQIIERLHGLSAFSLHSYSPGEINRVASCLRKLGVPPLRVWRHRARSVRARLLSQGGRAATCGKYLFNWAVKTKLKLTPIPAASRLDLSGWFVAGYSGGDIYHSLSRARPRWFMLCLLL
T1 sequence (P26663 2420-2997, looked up, stated change not applied): as above

One may read the IC50 as the point on the concentration scale where inhibition reaches its midpoint. At Genome polyprotein [1], `O=C1c2cccc3c(NCCO)ccc(c23)C(=O)N1c1ccccc1` [1H-benzo[de]isoquinoline-1,3(2H)-dione, 4] had an IC50 of more than 50 µM. For the molecule `O=C1c2cccc3cccc(c23)C(=O)N1c1cccc(Br)c1` [1H-benzo[de]isoquinoline-1,3(2H)-dione, 5], the IC50 on Genome polyprotein [1] and against Genome polyprotein [2] was more than 50 µM throughout.

In the case of `O=C1c2cccc3c(NCCO)ccc(c23)C(=O)N1c1cccc(F)c1` [1H-benzo[de]isoquinoline-1,3(2H)-dione, 13], the IC50 on Genome polyprotein [1] is more than 50 µM. At Genome polyprotein [1], `NS(=O)(=O)c1cccc(N2C(=O)c3cccc4c(NCCO)ccc(c34)C2=O)c1` [1H-benzo[de]isoquinoline-1,3(2H)-dione, 14] had an IC50 of more than 50 µM. Regarding `OCCNc1ccc2c3c(cccc13)CN(c1cccc(Br)c1)C2` [benzo[de]isoquinoline, 11], the IC50 against Genome polyprotein [1] and at Genome polyprotein [2] was more than 50 µM in each case.

As to `CC(C)N(c1cc(-c2ccccc2)sc1C(=O)O)C(=O)[C@H]1CC[C@H](C)CC1` [thiophene scaffold, 21], the IC50 in test [3] is more than 0.5 µM; in test [4], 0.1 µM; against Genome polyprotein [1], more than 10 µM.
